In US10597366B2, “Aryl ethers and uses thereof” (Peloton Therapeutics, Inc., priority 2013, dated 2020):

What was measured:
[1] = test system: human VEGFA; test: Plasma human VEGFA level of 786-O xenograft bearing mice; type: in vivo; conditions: 10, 30 and 100 mg/kg, three times at 12 hour intervals, prior to vs 12 h post treatment, FIG. 5
[2] = test system: 786-O-Hif-Luc cells (luciferase gene driven by multiple HIF responsive elements); test: Luciferase Assay; type: cell-based; conditions: 24 h, 786-O-Hif-Luc cells, about 24 hours; read-out: Mean Luciferease EC50
Method: A pool of infected cells were then selected against 2 μg/mL of puromycin (P8833, Sigma) for 10 days followed by limited dilution to select single clones.
Each concentration was tested in triplicate. After about 24 hours, luciferase activity was determined using ONE-Glo Luciferase Assay Reagent (E6110, Promega) following the manufacturer's recommended procedure. EC50 were calculated by using Dotmatics software.

[3] = test system: EPO and PGK1 mRNA in mouse kidney; test: In vivo PK/PD study: mouse kidney mRNA levels by qRT-PCR; set-up: species or system SCID/Biege mice; conditions: oral gavage three times at 12 hour intervals; 10, 30 or 100 mg/kg
Method: About 5×10^6 renal cell carcinoma 786-O tumor cells (ATCC® CRL-1932, VHL and HIF-1α null cell line) in PBS and Matrigel (1:1 in volume) were injected subcutaneously at the right flanks of SCID/Biege mice at 6-7 weeks of age for xenograft development. When the xenografts reached about 450 mm^3 in size, the tumor bearing mice were randomly divided into 4 groups (n=4). Plasma was collected prior to treatment by retro-orbital bleeding. […] All animals were sacrificed at 12 hours post last dose. Tumor, kidney, and plasma were collected from each animal. Total RNA was extracted from the tumors and kidneys. The mRNA levels of HIF-1α, HIF-2α and their respective target genes were determined by qRT-PCR (FIG. 1).

[4] = test system: renal cell carcinoma 786-O xenograft; test: In vivo efficacy study, 786-O xenograft; set-up: species or system SCID/Biege mice; conditions: all treatment groups; t-Test; Compound 15 20 days, Compound 163 28 days
[5] = test system: VEGFA concentration in medium of 786-O cells; test: VEGF ELISA Assay; type: cell-based; conditions: Homo sapiens, 786-0, 786-O cells; read-out: Mean VEGF ELISA EC50
Method: Each concentration had duplicated wells. About 20 hours later, medium was removed by suction and each well was supplied with 180 μL of growth medium. About 20 μl freshly-made 10× compound stocks were added to each well. […] The EC50 was calculated by GraphPad Prism using the dose-response-inhibition (four parameter) equation. The cell seeded plate was then subjected to CellTiter-Glo luminescence cell viability assay (Promega) by adding 50 μL of Celltiter Glo reagent into each well and shaking the plate for 8 minutes at 550 rpm (Thermomixer R, Eppendorf) then read luminescence signal in plate reader (3 second delay, 0.5 second/well integration time, Synergy 2 multi Detection Microplate reader) immediately.

Row | EC50 [2] | EC50 [5] | SMILES | plasma level of human VEGFA [1] | Mouse kidney EPO mRNA level (HIF-2α specifically regulated gene) [3] | Mouse kidney PGK1 mRNA level (HIF-1α targeted gene) [3] | Tumor size versus vehicle [4]
1 | 7 nM |  | N#Cc1cc(F)cc(Oc2ccc(S(=O)(=O)C(F)F)c3c2CC(F)(F)[C@H]3O)c1 [Compound 15, 3-[(1S)-7-(difluoromethylsulfonyl)-2,2-difluoro-1-hydroxy-indan-4-yl]oxy-5-fluoro-benzonitrile] | reduced | reduced | remained unchanged | statistically significant reduction
2 | 110 nM | 140 nM | O=S(=O)(c1ccc(Oc2cc(F)c[n+]([O-])c2)c2c1[C@H](O)C(F)(F)C2)C(F)(F)F [Compound 310, (S)-3-((2,2-difluoro-1-hydroxy-7-((trifluoromethyl)sulfonyl)-2,3-dihydro-1H-inden-4-yl)oxonio)-5-fluoropyridine 1-oxide] |  |  |  | 
3 | 490 nM | 150 nM | CS(=O)(=O)c1ccc(Oc2cncc(C#N)c2)c2c1[C@H](O)C(F)(F)C2 [Compound 325, (S)-5-((2,2-Difluoro-1-hydroxy-7-(methylsulfonyl)-2,3-dihydro-1H-inden-4-yl)oxy)nicotinonitrile] |  |  |  | 
4 | 91 nM | 52 nM | CS(=O)(=O)c1ccc(Oc2cncc(C#N)c2)c2c1[C@H](O)C(F)(F)[C@@H]2F [Compound 342, 5-(((1S,3R)-2,2,3-trifluoro-1-hydroxy-7-(methylsulfonyl)-2,3-dihydro-1H-inden-4-yl)oxy)nicotinonitrile] |  |  |  | 
